Patent publication US8466107B2, “Fibrin-binding peptides and conjugates thereof” (Bracco Imaging SpA, priority 2006, dated 2013)
Bridge positions count the residues as written; N and C are the ends. Square brackets hold non-standard residues; d marks the D form. Peptide text beside a SMILES is read from it. * marks the point of attachment. 5FAM = O=C1OC2(c3ccc(O)cc3Oc3cc(O)ccc32)c2ccc(C(=O)*)cc21; AEEA = NCCOCCOCC(=O)O

Molecular target: DDE (fibrin-derived polypeptide) (Homo sapiens, UniProt P02671+P02675+P02679)
Sequence (P02671 124-216): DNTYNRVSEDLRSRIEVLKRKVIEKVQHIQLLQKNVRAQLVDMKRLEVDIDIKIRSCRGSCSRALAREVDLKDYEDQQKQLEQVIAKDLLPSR
Sequence (P02675 164-491): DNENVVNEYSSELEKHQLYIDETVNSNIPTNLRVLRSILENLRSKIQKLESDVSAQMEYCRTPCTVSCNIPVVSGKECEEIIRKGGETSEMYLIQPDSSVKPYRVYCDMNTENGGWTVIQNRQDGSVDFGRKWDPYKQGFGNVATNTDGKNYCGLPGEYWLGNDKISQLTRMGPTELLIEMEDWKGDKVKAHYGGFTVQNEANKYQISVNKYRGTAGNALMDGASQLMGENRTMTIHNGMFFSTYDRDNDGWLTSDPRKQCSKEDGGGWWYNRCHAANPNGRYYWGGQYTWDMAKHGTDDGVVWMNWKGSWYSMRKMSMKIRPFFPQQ
Sequence (P02679 114-432): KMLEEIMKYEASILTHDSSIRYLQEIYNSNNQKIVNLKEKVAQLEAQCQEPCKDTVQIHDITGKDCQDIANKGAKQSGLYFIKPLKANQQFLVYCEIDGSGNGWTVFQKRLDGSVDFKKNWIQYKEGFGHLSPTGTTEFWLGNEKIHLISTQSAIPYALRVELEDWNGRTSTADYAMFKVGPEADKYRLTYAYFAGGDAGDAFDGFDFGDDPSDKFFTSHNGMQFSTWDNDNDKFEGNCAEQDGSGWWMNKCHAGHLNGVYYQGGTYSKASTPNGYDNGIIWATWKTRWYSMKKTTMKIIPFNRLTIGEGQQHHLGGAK
Sequence (P02671 36-97): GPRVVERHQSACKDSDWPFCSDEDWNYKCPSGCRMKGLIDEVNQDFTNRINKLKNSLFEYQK
Sequence (P02675 45-152): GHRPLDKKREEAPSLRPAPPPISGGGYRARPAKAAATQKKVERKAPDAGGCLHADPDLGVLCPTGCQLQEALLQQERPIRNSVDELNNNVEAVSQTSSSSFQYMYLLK
Sequence (P02679 27-88): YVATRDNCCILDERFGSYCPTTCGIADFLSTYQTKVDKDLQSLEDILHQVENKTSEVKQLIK
Assay: Direct binding fluorescence polarization (FP) assay using 5-carboxyfluorescein labeled peptides
Conditions: 20 nM CF5-labeled peptide, serial dilutions of DDE, anisotropy read at 485 nm; read-out: KD (μM) Direct Binding (n = 2)
Experimental: Assay of Fibrin Binding Peptides by Direct Binding Fluorescence Polarization (FP) Procedure using 5-Carboxyfluoresein Labeled Peptides
Protocol • 1. Prepare 1 mL of 40 nM solution of 5-carboxyfluorescein-labeled peptide in HEPES dilution buffer (HDB) with 0.01% Tween. • HDB (10 mM HEPES, 150 mM […], 2 mM CaCl2) • 2. Dilute the 40 nM solution to obtain 1 ml of a 20 nM solution of the test 5-carboxyfluorescein-labeled peptide. • 3. Prepare a solution of DDE at a concentration that will be approximately 5-10 fold greater than the expected KD. For the described assay an 8 μM concentration of DDE was prepared. • 4. Mix equal volumes of the DDE solution with the 40 nM peptide solution. • 5. Prepare serial dilutions of DDE in a solution consisting of the binding buffer with 0.01% Tween20 and 20 nM of the 5-carboxyfluorescein-labeled peptide. • 6. Make dilutions as shown in the following table in a Labsystems 384-well microplate and mix by repeated aspiration and dispensing of the solution into the wells. • 7. Centrifuge the plate at 2000 RPM for 5 minutes to remove air pockets in the wells. • 8. Read in Tecan Polarion Plate Reader at 485 nm to obtain the anisotropy value.
The anisotropy (in mP—millipolarization units) vs the logarithm of the concentration (micromoles/liter) of the receptor concentration is graphed. The dissociation constant is obtained at the midpoint of the curve whose extrema are Afree and Abound where Afree is the anisotropy of the free peptide and Abound is the anisotropy of the fully bound peptide. The theory, methods of operation and mathematical analysis is described in, for example, the following reference: Fluorescence Polarization Technical Resource Guide Technical Resource Guide 4th Edn. Invitrogen Corporation•501 Charmany Drive•Madison, Wis. 53719 USA. Particularly, the mathematical analysis of the data and obtaining binding constants is described in Chapter 8: Analysis of FP Binding Data pp 8-2-8-7.

Row | Compound | Kd
1 | CC(=O)N[C@@H](Cc1c[nH]c2ccccc12)C(=O)N[C@@H](CCC(N)=O)C(=O)N1CCC[C@H]1C(=O)N[C@H]1CSSC[C@@H](C(=O)N[C@@H](Cc2c[nH]c3ccccc23)C(=O)N[C@@H](CC(=O)O)C(=O)N2CCC[C@H]2C(=O)NCC(=O)NCC(=O)NCC(=O)N[C@@H](CCCCNC(=O)c2ccc3c(c2)C(=O)OC32c3ccc(O)cc3Oc3cc(O)ccc32)C(N)=O)NC(=O)[C@H](Cc2ccccc2)NC(=O)[C@H]([C@@H](C)O)NC(=O)[C@H](Cc2c[nH]c3ccccc23)NC(=O)[C@H](CO)NC(=O)[C@H](CCC(=O)O)NC(=O)[C@H](Cc2c[nH]c3ccccc23)NC(=O)[C@@H]2CCCN2C1=O [Seq000-CF5, reference compound] (Ac-WQPCPWESWTFCWDPGGGK(5FAM)-NH2; disulfide 4-12) | 0.39 µM
2 | CC(=O)N[C@@H](CO)C(=O)NCC(=O)N[C@@H](CO)C(=O)NCC(=O)NCCOCCOCC(=O)N[C@@H](Cc1c[nH]c2ccccc12)C(=O)N[C@@H](CCC(N)=O)C(=O)N1CCC[C@H]1C(=O)N[C@H]1CSSC[C@@H](C(=O)N[C@@H](Cc2c[nH]c3ccccc23)C(=O)N[C@@H](CC(=O)O)C(=O)N2CCC[C@H]2C(=O)NCC(=O)NCC(=O)NCC(=O)N[C@@H](CCCCNC(=O)c2ccc3c(c2)C(=O)OC32c3ccc(O)cc3Oc3cc(O)ccc32)C(N)=O)NC(=O)[C@H](Cc2ccccc2)NC(=O)[C@H]([C@@H](C)O)NC(=O)[C@H](Cc2c[nH]c3ccccc23)NC(=O)[C@H](CO)NC(=O)[C@H](CCC(=O)O)NC(=O)[C@H](Cc2c[nH]c3ccccc23)NC(=O)[C@@H]2CCCN2C1=O [Seq017-CF5] (Ac-SGSG[AEEA]WQPCPWESWTFCWDPGGGK(5FAM)-NH2; disulfide 9-17) | 0.45 µM

Compounds with a lower Kd, results first:

Row | Kd | Compound
3 | 0.29 µM | CC(=O)NCC(=O)NCC(=O)N[C@@H](CCCNC(=N)N)C(=O)NCC(=O)N[C@@H](Cc1c[nH]c2ccccc12)C(=O)N[C@@H](CCC(N)=O)C(=O)N1CCC[C@H]1C(=O)N[C@H]1CSSC[C@@H](C(=O)N[C@@H](Cc2c[nH]c3ccccc23)C(=O)N[C@@H](CC(=O)O)C(=O)N2CCC[C@H]2C(=O)NCC(=O)NCC(=O)NCC(=O)N[C@@H](CCCCNC(=O)c2ccc3c(c2)C(=O)OC32c3ccc(O)cc3Oc3cc(O)ccc32)C(N)=O)NC(=O)[C@H](Cc2ccccc2)NC(=O)[C@H]([C@@H](C)O)NC(=O)[C@H](Cc2c[nH]c3ccccc23)NC(=O)[C@H](CO)NC(=O)[C@H](CCC(=O)O)NC(=O)[C@H](Cc2c[nH]c3ccccc23)NC(=O)[C@@H]2CCCN2C1=O [Seq015-CF5] (Ac-GGRGWQPCPWESWTFCWDPGGGK(5FAM)-NH2; disulfide 8-16)
4 | 0.25 µM | CC(=O)NCC(=O)N1CCC[C@H]1C(=O)N1CCC[C@H]1C(=O)NCC(=O)N[C@@H](Cc1c[nH]c2ccccc12)C(=O)N[C@@H](CCC(N)=O)C(=O)N1CCC[C@H]1C(=O)N[C@H]1CSSC[C@@H](C(=O)N[C@@H](Cc2c[nH]c3ccccc23)C(=O)N[C@@H](CC(=O)O)C(=O)N2CCC[C@H]2C(=O)NCC(=O)NCC(=O)NCC(=O)N[C@@H](CCCCNC(=O)c2ccc3c(c2)C(=O)OC32c3ccc(O)cc3Oc3cc(O)ccc32)C(N)=O)NC(=O)[C@H](Cc2ccccc2)NC(=O)[C@H]([C@@H](C)O)NC(=O)[C@H](Cc2c[nH]c3ccccc23)NC(=O)[C@H](CO)NC(=O)[C@H](CCC(=O)O)NC(=O)[C@H](Cc2c[nH]c3ccccc23)NC(=O)[C@@H]2CCCN2C1=O [Seq014-CF5] (Ac-GPPGWQPCPWESWTFCWDPGGGK(5FAM)-NH2; disulfide 8-16)
5 | 0.23 µM | CC(=O)NCC(=O)N[C@@H](Cc1c[nH]c2ccccc12)C(=O)N[C@@H](CCC(N)=O)C(=O)N1CCC[C@H]1C(=O)N[C@H]1CSSC[C@@H](C(=O)N[C@@H](Cc2c[nH]c3ccccc23)C(=O)N[C@@H](CC(=O)O)C(=O)N2CCC[C@H]2C(=O)NCC(=O)NCC(=O)NCC(=O)N[C@@H](CCCCNC(=O)c2ccc3c(c2)C(=O)OC32c3ccc(O)cc3Oc3cc(O)ccc32)C(N)=O)NC(=O)[C@H](Cc2ccccc2)NC(=O)[C@H]([C@@H](C)O)NC(=O)[C@H](Cc2c[nH]c3ccccc23)NC(=O)[C@H](CO)NC(=O)[C@H](CCC(=O)O)NC(=O)[C@H](Cc2c[nH]c3ccccc23)NC(=O)[C@@H]2CCCN2C1=O [Seq016-CF5] (Ac-GWQPCPWESWTFCWDPGGGK(5FAM)-NH2; disulfide 5-13)
